# Columns and labels:
# Format in all cases: in vivo
# Curled Dock [1] = assay: Postemergence herbicidal activity, % control of plant growth; details: post-emergence, 264 h, 8 lb/acre, about 11 days
# Description: (§1) By the term "postemergence" is meant that the compound is applied to the plant sought to be controlled after it has emerged from the soil surface. This term is also used to describe the application of herbicidally active compounds to soil surface in and around growing plants sought to be controlled for purposes of effecting root absorption by the undesirable plant species.
# (§2) In the postemergence test the soil and developing plants were sprayed approximately 2 weeks after the seeds were sown. The compound was applied at the rate of 8 pounds per acre from about a 2 percent by weight solution of the test compound in acetone and/or alcohol. The postemergence herbicidal activity was measured in the same way as the preemergence activity; i.e. visual observation approximately 11 days after spraying, and expressed as the percent control of plant growth.
# (§3) **Postemergence test: compound applied at rate of 8 lb/acre
# Johnsongrass [2] = assay: as above; details: Sorghum halepense, post-emergence, 264 h, 8 lb/acre, about 11 days
# Description: as §1, §2, §3
# Lambsquarters [3] = assay: as above; details: Chenopodium album, post-emergence, 264 h, 8 lb/acre, about 11 days
# Description: as §1, §2, §3
# Cucumber [4] = assay: as above; details: Cucumis sativus, post-emergence, 264 h, 8 lb/acre, about 11 days
# Description: as §1, §2, §3
# Velvetleaf [5] = assay: as above; details: Abutilon theophrasti, post-emergence, 264 h, 8 lb/acre, about 11 days
# Description: as §1, §2, §3
# Nutgrass [6] = assay: as above; details: post-emergence, 264 h, 8 lb/acre, about 11 days
# Description: as §1, §2, §3
# Snapbeans [7] = assay: as above; details: post-emergence, 264 h, 8 lb/acre, about 11 days
# Description: as §1, §2, §3
# Pigweed [8] = assay: as above; details: Amaranthus retroflexus, post-emergence, 264 h, 8 lb/acre, about 11 days
# Description: as §1, §2, §3
# Foxtail [9] = assay: as above; details: Setaria, post-emergence, 264 h, 8 lb/acre, about 11 days
# Description: as §1, §2, §3
# Cheatgrass [10] = assay: as above; details: Bromus tectorum, post-emergence, 264 h, 8 lb/acre, about 11 days
# Description: as §1, §2, §3
# Chickweed [11] = assay: as above; details: post-emergence, 264 h, 8 lb/acre, about 11 days
# Description: as §1, §2, §3
# Yellow Rocket [12] = assay: as above; details: post-emergence, 264 h, 8 lb/acre, about 11 days
# Description: as §1, §2, §3
# Alfalfa [13] = assay: as above; details: Medicago sativa, post-emergence, 264 h, 8 lb/acre, about 11 days
# Description: as §1, §2, §3
# Corn [14] = assay: as above; details: Zea mays, post-emergence, 264 h, 8 lb/acre, about 11 days
# Description: as §1, §2, §3
# Barnyard Grass [15] = assay: as above; details: Echinochloa crus-galli, post-emergence, 264 h, 8 lb/acre, about 11 days
# Description: as §1, §2, §3
# Wild Oats [16] = assay: as above; details: Avena fatua, post-emergence, 264 h, 8 lb/acre, about 11 days
# Description: as §1, §2, §3
# Crabgrass [17] = assay: as above; details: Digitaria sanguinalis, post-emergence, 264 h, 8 lb/acre, about 11 days
# Description: as §1, §2, §3
# Curled Dock [18] = assay: Preemergence herbicidal activity, % control of plant growth; details: for pest or weed control at 17933.6 g/ha: pre-emergence, 504 h, 16 lb/acre, about 3 weeks
# Description: (§4) By "preemergence" is meant that the compound is applied to the soil prior to emergence of the weed species sought to be controlled. This term, as used herein, also means the application of the herbicidal compounds falling within the scope of this disclosure to areas wherein useful or desirable plants are either growing or have been sown, but where the undesirable plants sought to be controlled have not as yet emerged.
# (§5) In using the compound, seeds of the types of plants set forth in Table II were sown in fresh soil. In the preemergence test the soil was sprayed with a solution of the test compound immediately after the seeds were planted, and before any noticeable growth developed. The solution was about a 2 percent by weight solution of the compound in acetone and/or alcohol. The compound was applied at the rate of 16 pounds per acre of soil surface.
# (§6) Approximately 3 weeks after spray application, the herbicidal activity of the compound was determined by visual observation of the treated area in comparison with untreated control areas. These observations are reported below in Table II wherein the average activity rating is reported as the percent control of plant growth.
# (§7) *Preemergence test: compound applied at rate of 16 lb/acre
# Johnsongrass [19] = assay: as above; details: Sorghum halepense, pre-emergence, 504 h, 16 lb/acre, about 3 weeks
# Description: as §4, §5, §6, §7
# Lambsquarters [20] = assay: as above; details: for pest or weed control at 17933.6 g/ha: Chenopodium album, pre-emergence, 504 h, 16 lb/acre, about 3 weeks
# Description: as §4, §5, §6, §7
# Cucumber [21] = assay: as above; details: for pest or weed control at 17933.6 g/ha: Cucumis sativus, pre-emergence, 504 h, 16 lb/acre, about 3 weeks
# Description: as §4, §5, §6, §7
# Velvetleaf [22] = assay: as above; details: Abutilon theophrasti, pre-emergence, 504 h, 16 lb/acre, about 3 weeks
# Description: as §4, §5, §6, §7
# Nutgrass [23] = assay: as above; details: pre-emergence, 504 h, 16 lb/acre, about 3 weeks
# Description: as §4, §5, §6, §7
# Snapbeans [24] = assay: as above; details: for pest or weed control at 17933.6 g/ha: pre-emergence, 504 h, 16 lb/acre, about 3 weeks
# Description: as §4, §5, §6, §7
# Pigweed [25] = assay: as above; details: for pest or weed control at 17933.6 g/ha: Amaranthus retroflexus, pre-emergence, 504 h, 16 lb/acre, about 3 weeks
# Description: as §4, §5, §6, §7
# Foxtail [26] = assay: as above; details: Setaria, pre-emergence, 504 h, 16 lb/acre, about 3 weeks
# Description: as §4, §5, §6, §7
# Cheatgrass [27] = assay: as above; details: for pest or weed control at 17933.6 g/ha: Bromus tectorum, pre-emergence, 504 h, 16 lb/acre, about 3 weeks
# Description: as §4, §5, §6, §7
# Chickweed [28] = assay: as above; details: for pest or weed control at 17933.6 g/ha: pre-emergence, 504 h, 16 lb/acre, about 3 weeks
# Description: as §4, §5, §6, §7
# Yellow Rocket [29] = assay: as above; details: pre-emergence, 504 h, 16 lb/acre, about 3 weeks
# Description: as §4, §5, §6, §7
# Alfalfa [30] = assay: as above; details: for pest or weed control at 17933.6 g/ha: Medicago sativa, pre-emergence, 504 h, 16 lb/acre, about 3 weeks
# Description: as §4, §5, §6, §7
# Corn [31] = assay: as above; details: for plant injury at 17933.6 g/ha: Zea mays, pre-emergence, 504 h, 16 lb/acre, about 3 weeks
# Description: as §4, §5, §6, §7
# Barnyard Grass [32] = assay: as above; details: Echinochloa crus-galli, pre-emergence, 504 h; barnyard grass; 16 lb/acre; about 3 weeks
# Description: as §4, §5, §6, §7
# Wild Oats [33] = assay: as above; details: Avena fatua, pre-emergence, 504 h, 16 lb/acre, about 3 weeks
# Description: as §4, §5, §6, §7
# Crabgrass [34] = assay: as above; details: for pest or weed control at 17933.6 g/ha: Digitaria sanguinalis, pre-emergence, 504 h, 16 lb/acre, about 3 weeks
# Description: as §4, §5, §6, §7
smiles,measurement,setting,value
"O=c1[nH]c2cccnc2c(=O)n1Cc1ccccc1 [3-benzyl-pyrido[3,2-d]pyrimidine-[2,4(1H,3H)-dione]",pest or weed control at 8966.8 g/ha,Curled Dock [1],0%
same,pest or weed control at 8966.8 g/ha,Johnsongrass [2],0%
same,pest or weed control at 8966.8 g/ha,Lambsquarters [3],60%
same,pest or weed control at 8966.8 g/ha,Cucumber [4],10%
same,pest or weed control at 8966.8 g/ha,Velvetleaf [5],30%
same,pest or weed control at 8966.8 g/ha,Nutgrass [6],0%
same,pest or weed control at 8966.8 g/ha,Snapbeans [7],0%
same,pest or weed control at 8966.8 g/ha,Pigweed [8],100%
same,pest or weed control at 8966.8 g/ha,Foxtail [9],0%
same,pest or weed control at 8966.8 g/ha,Cheatgrass [10],0%
same,pest or weed control at 8966.8 g/ha,Chickweed [11],100%
same,pest or weed control at 8966.8 g/ha,Yellow Rocket [12],70%
same,pest or weed control at 8966.8 g/ha,Alfalfa [13],0%
same,plant injury at 8966.8 g/ha,Corn [14],0%
same,pest or weed control at 8966.8 g/ha,Barnyard Grass [15],0%
same,pest or weed control at 8966.8 g/ha,Wild Oats [16],0%
same,pest or weed control at 8966.8 g/ha,Crabgrass [17],40%
same,herbicidal activity/control,Curled Dock [18]; 16 pounds per acre,total preemergence activity
same,pest or weed control at 17933.6 g/ha,Curled Dock [18],100%
same,pest or weed control at 17933.6 g/ha,Johnsongrass [19],90%
same,herbicidal activity/control,Lambsquarters [20]; 16 pounds per acre,total preemergence activity
same,pest or weed control at 17933.6 g/ha,Lambsquarters [20],100%
same,herbicidal activity/control,Cucumber [21]; 16 pounds per acre,no preemergence herbicidal activity
same,pest or weed control at 17933.6 g/ha,Cucumber [21],0%
same,pest or weed control at 17933.6 g/ha,Velvetleaf [22],90%
same,pest or weed control at 17933.6 g/ha,Nutgrass [23],0%
same,herbicidal activity/control,Snapbeans [24]; 16 pounds per acre,no preemergence herbicidal activity
same,pest or weed control at 17933.6 g/ha,Snapbeans [24],10%
same,herbicidal activity/control,Pigweed [25]; 16 pounds per acre,total preemergence activity
same,pest or weed control at 17933.6 g/ha,Pigweed [25],100%
same,pest or weed control at 17933.6 g/ha,Foxtail [26],90%
same,herbicidal activity/control,Cheatgrass [27]; 16 pounds per acre,total preemergence activity
same,pest or weed control at 17933.6 g/ha,Cheatgrass [27],100%
same,herbicidal activity/control,Chickweed [28]; 16 pounds per acre,total preemergence activity
same,pest or weed control at 17933.6 g/ha,Chickweed [28],100%
same,pest or weed control at 17933.6 g/ha,Yellow Rocket [29],90%
same,herbicidal activity/control,Alfalfa [30]; 16 pounds per acre,total preemergence activity
same,pest or weed control at 17933.6 g/ha,Alfalfa [30],100%
same,herbicidal activity/control,Corn [31]; 16 pounds per acre,no preemergence herbicidal activity
same,plant injury at 17933.6 g/ha,Corn [31],10%
same,pest or weed control at 17933.6 g/ha,Barnyard Grass [32],90%
same,pest or weed control at 17933.6 g/ha,Wild Oats [33],30%
same,herbicidal activity/control,Crabgrass [34]; 16 pounds per acre,total preemergence activity
same,pest or weed control at 17933.6 g/ha,Crabgrass [34],100%
"CCCCn1c(=O)[nH]c2cccnc2c1=O [3-butyl-pyrido[3,2-d]pyrimidine-2,4(1H,3H)-dione]",pest or weed control at 8966.8 g/ha,Curled Dock [1],100%
same,pest or weed control at 8966.8 g/ha,Johnsongrass [2],100%
same,pest or weed control at 8966.8 g/ha,Lambsquarters [3],10%
same,pest or weed control at 8966.8 g/ha,Cucumber [4],100%
same,pest or weed control at 8966.8 g/ha,Velvetleaf [5],100%
same,pest or weed control at 8966.8 g/ha,Nutgrass [6],90%
same,pest or weed control at 8966.8 g/ha,Snapbeans [7],100%
same,pest or weed control at 8966.8 g/ha,Pigweed [8],90%
same,pest or weed control at 8966.8 g/ha,Foxtail [9],100%
same,pest or weed control at 8966.8 g/ha,Cheatgrass [10],100%
same,pest or weed control at 8966.8 g/ha,Chickweed [11],100%
same,pest or weed control at 8966.8 g/ha,Yellow Rocket [12],90%
same,pest or weed control at 8966.8 g/ha,Alfalfa [13],50%
same,plant injury at 8966.8 g/ha,Corn [14],50%
same,pest or weed control at 8966.8 g/ha,Barnyard Grass [15],100%
same,pest or weed control at 8966.8 g/ha,Wild Oats [16],100%
same,pest or weed control at 8966.8 g/ha,Crabgrass [17],100%
same,pest or weed control at 17933.6 g/ha,Curled Dock [18],90%
same,pest or weed control at 17933.6 g/ha,Johnsongrass [19],100%
same,pest or weed control at 17933.6 g/ha,Lambsquarters [20],70%
same,pest or weed control at 17933.6 g/ha,Cucumber [21],100%
same,pest or weed control at 17933.6 g/ha,Velvetleaf [22],100%
same,pest or weed control at 17933.6 g/ha,Nutgrass [23],100%
same,pest or weed control at 17933.6 g/ha,Snapbeans [24],100%
same,pest or weed control at 17933.6 g/ha,Pigweed [25],100%
same,pest or weed control at 17933.6 g/ha,Foxtail [26],100%
same,pest or weed control at 17933.6 g/ha,Cheatgrass [27],100%
same,pest or weed control at 17933.6 g/ha,Chickweed [28],100%
same,pest or weed control at 17933.6 g/ha,Yellow Rocket [29],100%
same,pest or weed control at 17933.6 g/ha,Alfalfa [30],100%
same,plant injury at 17933.6 g/ha,Corn [31],100%
same,pest or weed control at 17933.6 g/ha,Barnyard Grass [32],100%
same,pest or weed control at 17933.6 g/ha,Wild Oats [33],100%
same,pest or weed control at 17933.6 g/ha,Crabgrass [34],90%

# From US3960877A, “N-monosubstituted-2,3-pyridinedicarboxamides, and related compounds” (priority 1974, dated 1976)
